Test results as given in publication PMC5702617, “Novel peptide probes to assess the tensional state of fibronectin fibers in cancer” (Nature Communications, 2017).
Like-named read-outs stand apart in the source and are kept apart here.

Legend:
[1] = In vitro plasma stability; assay type: in vitro ADME, human; details: RP-HPLC, means from three experiments; for stability in human blood plasma: 37°C
Experimental: The stability of peptides in blood is often limited as they are rapidly cleaved by catalytic enzymes found in tissue and blood, resulting in a short biological half-life. […] To verify whether the FnBPA5 peptide can be used for in vivo applications, we next performed a plasma stability test. The metabolic stability of the peptide radiotracer ^111In-FnBPA5 was tested in vitro by incubating the radiolabeled FnBPA5 at 37°C with human blood plasma, or water as control. The unbound peptide fraction was separated from the plasma proteins at different time points (0, 1, 24, 48, and 72 h) and was analyzed by reversed-phase high-pressure liquid chromatography (RP-HPLC).
After that, the samples were filtrated using a Thomson Single StEP Filter vial 0.45 μm PVDF (Thomson Instrument Company, Oceanside, USA) and the supernatant was analyzed by reversed-phase HPLC (Varian Prostar HPLC System, SpectraLab Scientific Inc., Canada) using a D-Bio Discovery Wide Pore C18 column (25 cm × 4.6 mm; 5 μm).

[2] = Biodistribution in PC-3 tumor grafted mice; assay type: in vivo, mouse; details: female, CD1 nude, mouse, in vivo, iv, 150 kBq (2.4 nmol), total radioactivity, PC-3 grafted mice, i.v. 150 kBq (2.4 nmol), mean ± SD, n = 4; for tissue to tissue ratio at 1 h: 1 h p.i.; for tissue to tissue ratio at 4 h: 4 h p.i.; for tissue to tissue ratio at 24 h: 24 h p.i.; for tissue to tissue ratio at 96 h: 96 h p.i.
Experimental: (§1) Experiments were performed 3–4 weeks after inoculation.
(§2) For the biodistribution experiments, PC-3 tumor grafted mice were injected into the tail vein with 150 kBq ^111In-FnBPA5 or ^111In-scrambled FnBPA5 (2.4 nmol, 100 µL PBS). For each peptide, groups of four mice were sacrificed at 1, 4, 24, and 96 h post injection. Blocking experiment (n = 4) was performed by injection of an excess of peptide (100 µg, 24 nmol in 100 µL PBS) directly before the administration of the corresponding radiolabeled peptide. The organs were collected, weighed and counted for activity with a γ counter (Packard Cobra II Auto, Gamma, PerkinElmer AG, Schwerzenbach, Switzerland) 4 h p.i. The results were expressed as a percentage of injected activity per gram of tissue (% IA per g tissue). The Student's t test analyses were considered as type 3 (two sample unequal variance) and statistical significance was assumed for p-values smaller than 0.05.

PC-3-bearing mice = experiment: Biodistribution in PC-3 tumor grafted mice; assay type: in vivo, mouse; details: PC-3 grafted mice, i.v. 150 kBq (2.4 nmol, 100 µL PBS), γ counter, mean ± SD, n = 4
Experimental: as §1, §2

[3] = read-out: Tumor-to-kidney ratio

**Q.** With `CC[C@H](C)[C@H](NC(=O)CNC(=O)[C@H](CCCCN)NC(=O)[C@@H](NC(=O)[C@H](CO)NC(=O)[C@H](CCC(=O)O)NC(=O)[C@H](CCC(=O)O)NC(=O)[C@H](CC(=O)O)NC(=O)[C@H](Cc1ccccc1)NC(=O)[C@H](CCC(=O)O)NC(=O)[C@@H](NC(=O)[C@H](CC(C)C)NC(=O)[C@H](CC(N)=O)NC(=O)[C@H](CO)NC(=O)[C@H](CCC(=O)O)NC(=O)[C@@H](NC(=O)[C@@H](NC(=O)[C@@H](NC(=O)[C@H](CCC(N)=O)NC(=O)CNC(=O)CNC(=O)CNC(=O)[C@@H](N)CSC1CC(=O)N(CCNC(=O)CCC(C(=O)O)N2CCN(CC(=O)O)CCN(CC(=O)O)CC2)C1=O)C(C)C)[C@@H](C)O)[C@@H](C)O)C(C)C)[C@@H](C)O)C(=O)N[C@H](C(=O)N[C@H](C(=O)NCC(=O)N[C@@H](C)C(=O)N[C@H](C(=O)N[C@@H](CO)C(=O)N[C@@H](CC(=O)O)C(=O)N[C@@H](Cc1c[nH]cn1)C(=O)N[C@H](C(=O)N[C@H](C(=O)N[C@H](C(=O)N[C@@H](CCC(=O)O)C(=O)N[C@@H](CC(=O)O)C(=O)N[C@H](C(=O)N[C@@H](CCCCN)C(=O)O)[C@@H](C)O)C(C)C)[C@@H](C)O)[C@@H](C)O)C(C)C)[C@@H](C)O)C(C)C` (stereo partly shown) [111In-FnBPA5, metal not drawn] as the compound, how does the “stability in human blood plasma” value ([1]; 1 hour time point) read?
**A.** high stability

**Q.** What about the “stability in human blood plasma” value ([1]; later time point) of the same compound?
**A.** very high stability

**Q.** What about the “fraction intact in human blood plasma” value ([1]; filtered fresh human blood plasma, 37 °C, 72 h, 12 MBq) of the same compound?
**A.** 80%

**Q.** And the remaining at 72 h ([1]; filtered fresh human blood plasma, 37 °C, 72 h, 12 MBq, read-out: fraction intact in human blood plasma)?
**A.** ~80%

**Q.** And the tissue to tissue ratio at 1 h ([2]; read-out: Tumor-to-blood ratio)?
**A.** 3.05 ± 1.65

**Q.** What about the tissue to tissue ratio at 1 h [2, 3] of the same compound?
**A.** 0.03

**Q.** And the tissue to tissue ratio at 1 h ([2]; read-out: Tumor-to-liver ratio)?
**A.** 0.66 ± 0.22

**Q.** And the tissue to tissue ratio at 4 h ([2]; read-out: Tumor-to-blood ratio)?
**A.** 9.68 ± 1.83

**Q.** What about the tissue to tissue ratio at 4 h [2, 3] of the same compound?
**A.** 0.03

**Q.** What about the tissue to tissue ratio at 4 h ([2]; read-out: Tumor-to-liver ratio) of the same compound?
**A.** 1.18 ± 0.08

**Q.** What about the tissue to tissue ratio at 24 h ([2]; read-out: Tumor-to-blood ratio) of the same compound?
**A.** 23.9 ± 2.52

**Q.** What about the tissue to tissue ratio at 24 h [2, 3] of the same compound?
**A.** 0.04

**Q.** And the tissue to tissue ratio at 24 h ([2]; read-out: Tumor-to-liver ratio)?
**A.** 2.21 ± 0.25

**Q.** And the tissue to tissue ratio at 96 h ([2]; read-out: Tumor-to-blood ratio)?
**A.** 34 ± 18.4

**Q.** And the tissue to tissue ratio at 96 h [2, 3]?
**A.** 0.05 ± 0.02

**Q.** And the tissue to tissue ratio at 96 h ([2]; read-out: Tumor-to-liver ratio)?
**A.** 2.11 ± 0.82

**Q.** What about the “Biodistribution, Blood” value (PC-3-bearing mice; 1 h p.i.) of the same compound?
**A.** 1.81 ± 0.62 IA% / g

**Q.** What about the “Biodistribution, Bone” value (PC-3-bearing mice; 1 h p.i.) of the same compound?
**A.** 1.85 ± 0.21 IA% / g

**Q.** And the “Biodistribution, Heart” value (PC-3-bearing mice; 1 h p.i.)?
**A.** 1.76 ± 0.51 IA% / g

**Q.** And the “Biodistribution, Intestines” value (PC-3-bearing mice; 1 h p.i.)?
**A.** 2.27 ± 0.33 IA% / g

**Q.** And the “Biodistribution, Kidneys” value (PC-3-bearing mice; 1 h p.i.)?
**A.** 140.58 ± 18.10 IA% / g

**Q.** What about the “Biodistribution, Liver” value (PC-3-bearing mice; 1 h p.i.) of the same compound?
**A.** 7.52 ± 1.50 IA% / g

**Q.** What about the “Biodistribution, Lung” value (PC-3-bearing mice; 1 h p.i.) of the same compound?
**A.** 2.88 ± 0.64 IA% / g

**Q.** And the “Biodistribution, Muscle” value (PC-3-bearing mice; 1 h p.i.)?
**A.** 0.57 ± 0.07 IA% / g

**Q.** And the “Biodistribution, Pancreas” value (PC-3-bearing mice; 1 h p.i.)?
**A.** 2.58 ± 1.27 IA% / g

**Q.** What about the “Biodistribution, Spleen” value (PC-3-bearing mice; 1 h p.i.) of the same compound?
**A.** 7.01 ± 1.23 IA% / g

**Q.** And the “Biodistribution, Stomach” value (PC-3-bearing mice; 1 h p.i.)?
**A.** 3.07 ± 0.39 IA% / g

**Q.** And the “Biodistribution, Blood” value (PC-3-bearing mice; 4 h p.i.)?
**A.** 0.48 ± 0.08 IA% / g

**Q.** What about the “Biodistribution, Bone” value (PC-3-bearing mice; 4 h p.i.) of the same compound?
**A.** 1.32 ± 0.26 IA% / g

**Q.** And the “Biodistribution, Heart” value (PC-3-bearing mice; 4 h p.i.)?
**A.** 0.91 ± 0.06 IA% / g

**Q.** And the “Biodistribution, Intestines” value (PC-3-bearing mice; 4 h p.i.)?
**A.** 1.77 ± 0.12 IA% / g

**Q.** What about the “Biodistribution, Kidneys” value (PC-3-bearing mice; 4 h p.i.) of the same compound?
**A.** 130.66 ± 10.32 IA% / g

**Q.** What about the “Biodistribution, Liver” value (PC-3-bearing mice; 4 h p.i.) of the same compound?
**A.** 3.85 ± 0.16 IA% / g

**Q.** And the “Biodistribution, Lung” value (PC-3-bearing mice; 4 h p.i.)?
**A.** 1.98 ± 0.12 IA% / g

**Q.** What about the “Biodistribution, Muscle” value (PC-3-bearing mice; 4 h p.i.) of the same compound?
**A.** 0.50 ± 0.17 IA% / g

**Q.** What about the “Biodistribution, Pancreas” value (PC-3-bearing mice; 4 h p.i.) of the same compound?
**A.** 2.31 ± 1.18 IA% / g

**Q.** What about the “Biodistribution, Spleen” value (PC-3-bearing mice; 4 h p.i.) of the same compound?
**A.** 3.35 ± 0.33 IA% / g

**Q.** What about the “Biodistribution, Stomach” value (PC-3-bearing mice; 4 h p.i.) of the same compound?
**A.** 2.46 ± 0.36 IA% / g

**Q.** And the “Biodistribution, Tumor” value (PC-3-bearing mice; 4 h p.i.)?
**A.** 4.51 ± 0.15 IA% / g

**Q.** What about the “Biodistribution, Blood” value (PC-3-bearing mice; 24 h p.i.) of the same compound?
**A.** 0.15 ± 0.008 IA% / g
